Results reported in ChEMBL document CHEMBL1145206, “Design, synthesis and structure-activity relationships of novel taxane-based multidrug resistance reversal agents” (2005).

How the values were obtained:
MDA-MB-435 = assay: MDR-reversal activity evaluated against the resistant human breast tumor cell line MDA-435/LCC6-MDR; format: functional; parameters: concentration or dose not given beside the values
MCF7R = assay: MDR-reversal activity evaluated against the resistant human breast tumor cell line MCF7-R; format: functional; parameters: concentration or dose not given beside the values

Compound | Reduction (MDA-MB-435) | Reduction (MCF7R)
CC(=O)O[C@H]1C(=O)[C@]2(C)[C@@H](OC(=O)/C=C/c3cccc4ccccc34)C[C@H]3OC[C@@]3(OC(C)=O)[C@H]2[C@H](OC(=O)c2ccccc2)[C@]2(O)C[C@H](O)C(C)=C1C2(C)C | 50% | 96%
CC(=O)O[C@H]1C(=O)[C@]2(C)[C@@H](OC(=O)/C=C/c3ccc(C(=O)c4ccccc4)cc3)C[C@H]3OC[C@@]3(OC(C)=O)[C@H]2[C@H](OC(=O)c2ccccc2)[C@]2(O)C[C@H](OC(C)=O)C(C)=C1C2(C)C | 92% | 99.7%
